From patent publication US20190008870A1, “COMPOSITIONS AND METHODS FOR LIPID METABOLISM DISORDER” (JANSFAT BIOTECHNOLOGY CO., LTD., priority 2016, published 2019) come the findings set out here.

Assay [1] has as its system ROCK II. Description: ROCK II expression in HepG2 cells. The assay is classed as cell-based. Here is the method: The HepG2 hepatoma cell line was purchased from the American Type Culture Collection (ATCC, Manassas, Va., U.S.A.). Cells were cultured in Dulbecco's Modified Eagle's Medium (DMEM). […] Then the targeted drugs solution was incubated with the cells for 24 hours, followed by protein extraction. […] HepG2 cells were treated with various concentrations of targeted drugs for 24 hours. Reactions were terminated by washing twice with cold PBS, and the cells were then harvested. Proteins in the whole-cell lysate were homogenized in an ice-cold lysis buffer and a protease inhibitor (Sigma-Aldrich, St. Louis, Mo., U.S.A.). The homogenate was centrifuged at 90,000×g for 15 minutes at 4° C., and supernatant was recovered as the total cellular protein. Cytosolic and membrane fractions of HepG2 cells were prepared using a CNM (Cytosol Nuclear Membrane) compartmental protein extraction kit (BioChain Institute Inc., Hayward, Calif., U.S.A.) according to the manufacturer's instructions. All of the fractionated protein solutions were stored at -80° C. until analysis. To measure the expression levels of proteins by drugs, the total cell protein was extracted after incubation with treatments for 24 hours and then Western blotting analysis was performed as described previously.

For assay [2], the system named is PPARγ. Put plainly: HFD-induced PPARγ expression in liver. Type of assay: in vivo, mice. The protocol:
In the experiment, C57BL/6J male mice (21-22 g), after fasting, were fed an HFD as a model of hyperlipidemia for 8 weeks. During the 2 month experiments, mice fasted for one night before the experiment was changed from a standard diet (STD) to an HFD and then the mice were randomly divided into 13 groups, including a protection group, 2 control and 10 treatment groups. Six mice were used in each group. […] Liver from the protection group supplemented with KMUP-1 HCl (1 mg/kg/day) were used to determine the HMG CoA reductase expression. Each group of mice had free access to drinking water from week 1 to week 14. Tap water was used to normalize mineral nutrition.
For the expression of SR-B1, HMGR, PPARγ and ROCK II, isolated liver tissues were cut into small chips and placed into an extraction buffer (Tris 10 mM, pH 7.0, NaCl 140 mM, PMSF 2 mM, DTT 5 mM, NP-40 0.5%, pepstatin A 0.05 mM and leupeptin 0.2 mM) for hepatic protein extraction, and centrifuged at 20,000×g for 30 minutes. The obtained protein extract was boiled to a ratio of 4:1 with a sample buffer (Tris 100 mM, pH 6.8, glycerol 20%, SDS 4% and bromophenol blue 0.2%). Electrophoresis was performed using 10% SDS-polyacrylamide gel (1 hour, 100 V, 40 mA, 20 μg protein per lane).
Separated proteins, after 3 repeated centrifugations to discard up-layer tissue lipid in purity, were transferred to PVDF membranes treated with 5% fat-free milk powder to block the nonspecific IgGs (90 minutes, 100 V) and incubated for 1 hour with specific protein antibody. The blot was then incubated with anti-mouse or anti-goat IgG linked to alkaline phosphatase (1:1000) for 1 hour.

Assay [3] has as its target T1, Human recombinant HMG CoA reductase (Homo sapiens, UniProt P04035).
T1 construct: purchased Sigma-Aldrich H7039; host or cells: E. coli
Put plainly: HMG CoA reductase activity and [14C]mevalonate formation. Type of assay: biochemical. The protocol: Human recombinant HMG CoA reductase expressed in E. coli (H7039, Sigma-Aldrich, MO, U.S.A.) was used. Human recombinant HMG-CoA reductase, examined by SDS-PAGE to be ≥90% in purity, 2-8 units/mg protein in activity and ˜76 kDa in molecular weight (H7039, Sigma-Aldrich, St. Louis, Mo. U.S.A.), was used for determining the formation of [^14C]mevalonate. KMUP-1 and targeted drugs were pre-incubated with 35 ng/ml enzyme in phosphate buffer pH 7.5 for 15 minutes at 37° C. The reaction was initiated by the addition of 2.5 μM [^14C]HMG-CoA for another 20 minutes incubation period and terminated by further addition of 1 N HCl. An aliquot was removed by column and counted to determine the amount of [^14C]mevalonate formed (Ricera® Co. Ltd., Taipei, Taiwan).

Assay [4] has as its system PKA. Put plainly: PKA expression/immunoreactivity in HepG2 cells. The assay is classed as cell-based. Here is the method:
HepG2 cells were treated with various concentrations of targeted drugs for 24 hours. Reactions were terminated by washing twice with cold PBS, and the cells were then harvested. Proteins in the whole-cell lysate were homogenized in an ice-cold lysis buffer and a protease inhibitor (Sigma-Aldrich, St. Louis, Mo., U.S.A.). The homogenate was centrifuged at 90,000×g for 15 minutes at 4° C., and supernatant was recovered as the total cellular protein. Cytosolic and membrane fractions of HepG2 cells were prepared using a CNM (Cytosol Nuclear Membrane) compartmental protein extraction kit (BioChain Institute Inc., Hayward, Calif., U.S.A.) according to the manufacturer's instructions. All of the fractionated protein solutions were stored at −80° C. until analysis. To measure the expression levels of proteins by drugs, the total cell protein was extracted after incubation with treatments for 24 hours and then Western blotting analysis was performed as described previously.
To determine that KMUP-1 or targeted drugs can affect PKA, we incubated KMUP-1 (10^−4, 10^−5, 10^−6 M) or targeted drugs with HepG2 cells for 24 hours to measure the protein expressions of PKA/PKG by Western blotting or PKA/PKG and HSL immunoreactivities by fluorescence staining, combined with image scanning in the absence or presence of oxidized LDL (200 μg/mL).

In assay [5] the test system is IL-10. Description: IHC staining of IL-10 in epididymal fat pads. Type of assay: in vivo, mice. The settings on record: HFD 14 weeks, KMUP-1 2.5 mg/kg/day, Control 31. The protocol: For IHC of MMP-9/TNFα, HSL/p-HSL/ATGL and eNOS/IL-10, antigen retrieval of de-paraffinated sections was performed in Dako target retrieval solution, pH 9.0, in a vegetable steamer followed by the quenching of endogenous peroxidase activity with 3.0% H2O2 in methanol. Sections were then incubated with specific primary antibodies overnight at 4° C. in a humidified chamber. The antibodies used included rabbit polyclonal anti-eNOS (1:50 dilution) (Abcam, Cambridge, UK) or rabbit monoclonal anti-cleaved caspase-3 (1:50 dilution) (Cell Signaling, U.S.A.). The sections were then examined using a DAKO REAL EnVision™ Detection System kit (DAKO, Carpinteria, Calif., U.S.A.) and counterstained with hematoxylin. Images were obtained through a Nikon Eclipse TE200-S microscope.

The subject of assay [6] is ABCA1. Put plainly: HFD-induced ABCA1 expression in liver. The assay is classed as in vivo, mice.
Setting [7] is: 10^−5 M, 24 hours, Control 100, Vehicle 88.
Where [8] appears, read: Simva 5 mg/kg, CTL 100 (Table 9).

T1 sequence (P04035 426-888 limits assumed): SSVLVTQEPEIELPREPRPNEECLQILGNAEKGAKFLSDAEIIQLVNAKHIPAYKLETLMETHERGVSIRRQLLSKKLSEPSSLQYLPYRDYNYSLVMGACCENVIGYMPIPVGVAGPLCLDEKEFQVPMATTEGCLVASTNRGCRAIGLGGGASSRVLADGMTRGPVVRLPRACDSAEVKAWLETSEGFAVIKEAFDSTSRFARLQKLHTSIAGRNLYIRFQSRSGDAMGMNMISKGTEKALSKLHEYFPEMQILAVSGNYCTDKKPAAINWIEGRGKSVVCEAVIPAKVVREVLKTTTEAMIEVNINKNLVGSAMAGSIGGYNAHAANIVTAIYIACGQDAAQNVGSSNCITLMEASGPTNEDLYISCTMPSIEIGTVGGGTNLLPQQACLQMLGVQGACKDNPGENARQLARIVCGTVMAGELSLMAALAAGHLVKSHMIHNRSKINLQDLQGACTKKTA

Regarding `Cn1c(=O)c2c(ncn2CCN2CCN(c3ccccc3Cl)CC2)n(C)c1=O` [KMUP-1, 7-[2-[4-(2-chlorophenyl)piperazinyl]ethyl]-1,3-dimethylxanthine], the “ROCK II expression” value in assay [1] (setting [7]) was 41; in assay [1] (Rp-8-pCPT-cGMPS + KMUP-1 (10 μM), Control 100), 170. For the same molecule, the ROCKII was determined as 60% in assay [1] (FPP (10 μM) + drug 10^−5 M); 80% in assay [1] (FPP (10 μM) + drug 10^−6 M); 88% in assay [1] (FPP (10 μM) + drug 10^−7 M); 86% in assay [1] (FPP (10 μM) + drug 10^−8 M); 84% in assay [1] (FPP (10 μM) + drug 10^−9 M); 40% in assay [1] (GGPP (10 μM) + drug 10^−5 M). Besides, the ROCKII in assay [1] (GGPP (10 μM) + drug 10^−6 M) is given as 60%; in assay [1] (GGPP (10 μM) + drug 10^−7 M), 108%; in assay [1] (GGPP (10 μM) + drug 10^−8 M), 120%; in assay [1] (GGPP (10 μM) + drug 10^−9 M) it was 112%. Moreover, the PPARγ in assay [2] (HFD mice, 1 mg/kg, CTL 100) came out at 53%; in assay [2] (HFD mice, 2.5 mg/kg, CTL 100) it was 249%; in assay [2] (HFD mice, 5 mg/kg, CTL 100), 245%. Besides, the “[14C]mevalonate formation” value in assay [3] (10 μM) is “could not reduce”. In addition, the “oxLDL-induced reduction of PKA expression” value in assay [4] (HepG2 cells, 1, 10, 100 μM, 200 μg/mL oxLDL) was “reversed”. In assay [4] (HepG2 cells, 10, 20, 40 μM, in the presence of LDL (500 μg/mL)), the PKA protein expression result is reported as “could not significantly affect”. Besides, the “PKA immunoreactivity (green fluorescence)” value in assay [4] (HepG2 cells, 24 hours) was “increased”. In addition, the “Immunorespons percentages, IL-10” value in assay [5] came to 56%. The ABCA1 in assay [6] (HFD mice, 1 mg/kg, CTL 100) worked out at 98%; in assay [6] (HFD mice, 2.5 mg/kg, CTL 100) it was 190%; in assay [6] (HFD mice, 5 mg/kg, CTL 100), 200%.
Take `CCC(C)(C)C(=O)O[C@H]1C[C@@H](C)C=C2C=C[C@H](C)[C@H](CC[C@@H]3C[C@@H](O)CC(=O)O3)[C@H]21` [Simva, Simvastatin, reference compound]: in assay [1] (setting [7]), the “ROCK II expression” value is recorded as 45. The ROCKII turned out to be 210% in assay [1] (GGPP (10 μM) + drug 10^−5 M); 220% in assay [1] (GGPP (10 μM) + drug 10^−6 M); 200% in assay [1] (GGPP (10 μM) + drug 10^−7 M); 214% in assay [1] (GGPP (10 μM) + drug 10^−8 M); 210% in assay [1] (GGPP (10 μM) + drug 10^−9 M). In assay [2] (setting [8]), this molecule registered a PPARγ of 280%. Moreover, the “inhibition of [14C]mevalonate formation” value in assay [3] (compared to the vehicle group) was 86.6±4.2%. The same molecule showed an ABCA1 in assay [6] (setting [8]) of 100%.
